The values that follow come from ChEMBL document CHEMBL1681658, “Design, synthesis and SAR of a series of 1,3,5-trisubstituted benzenes as thrombin inhibitors” (Bioorg Med Chem Lett, 2011).

The test system of one assay is Plasma. Put plainly: Anticoagulant activity in human plasma assessed as concentration required to double activated partial thromboplastin time. It counts as functional.
The target in the next assay is Prothrombin (Homo sapiens, UniProt P00734). Put plainly: Inhibition of thrombin.
Assay [1] can be described thus: Inhibition of trypsin.

By Ki is commonly meant the dissociation constant of the complex between target and ligand, obtained from inhibition or displacement. In the case of `Cc1cc(OCCc2nc[nH]c2C)cc(C(=O)N(CC(C)C)CC(C)C)c1`, the 2aPTT in the assay with Plasma turned out to be 4.1 µM. For the same molecule, the Ki at Prothrombin is 3.5 nM; in assay [1], 2600 nM.

On to `Cc1cc(OCC(F)(F)c2cc(C)ccn2)cc(C(=O)N(CC(C)C)CC(C)C)c1`, for which the Ki is 37 nM on Prothrombin and greater than 100000 nM in assay [1].

Consider `Cc1cc(OCCc2ccccc2CN)cc(C(=O)N(CC(C)C)CC(C)C)c1`, for which the 2aPTT with Plasma came out at 3.6 µM. For the same molecule, the results for the Ki (on Prothrombin; in assay [1]) were 2.9 nM and 29000 nM, respectively.

Regarding `COc1ccc(Cl)cc1CCOc1cc(C)cc(C(=O)N(CC(C)C)CC(C)C)c1`, the results for the Ki (at Prothrombin; in assay [1]) were 34 nM and greater than 100000 nM, respectively.

Regarding `Cc1cc(OCCc2ccccc2-n2cnnn2)cc(C(=O)N(CC(C)C)CC(C)C)c1`, in the assay on Plasma, the 2aPTT stood at 4.4 µM. Moreover, the Ki was found to be 1.7 nM at Prothrombin and 37000 nM in assay [1].

In the case of `Cc1cc(OCCc2cc(Cl)ccc2-n2cncn2)cc(C(=O)N(CC(C)C)CC(C)C)c1`, in the assay on Plasma, the 2aPTT came out at 7.1 µM. The Ki was determined as 0.93 nM on Prothrombin and 28000 nM in assay [1].

For the molecule `COC(=O)COc1ccc(Cl)cc1CCOc1cc(C)cc(C(=O)N(CC(C)C)CC(C)C)c1`, the 2aPTT in the assay on Plasma is greater than 8.2 µM. The Ki on Prothrombin is 0.73 nM; in assay [1], greater than 100000 nM.

Regarding `Cc1cc(OCCc2cc(Cl)ccc2OCC(=O)NC2CCCNC2)cc(C(=O)N(CC(C)C)CC(C)C)c1` (stereo unspecified), the 2aPTT with Plasma is greater than 8.2 µM. For the same molecule, the results for the Ki (on Prothrombin; in assay [1]) were 1.6 nM and 78000 nM, respectively.

Take `Cc1cc(C(=O)NCc2cc(Cl)ccc2CN)cc(C(=O)N(CC(C)C)CC(C)C)c1`: the 2aPTT in the assay with Plasma amounted to 1.6 µM. Also, the Ki at Prothrombin was determined as 0.68 nM; in assay [1] it was 111000 nM.

As to `Cc1cc(C(=O)NCc2cc(Cl)ccc2-n2cncn2)cc(C(=O)N(CC(C)C)CC(C)C)c1`, the 2aPTT in the assay on Plasma was 5.3 µM. Also, the figures for the Ki (at Prothrombin; in assay [1]) were 7 nM and greater than 100000 nM, respectively.

Consider `Cc1cc(C(=O)NCc2cc(Cl)ccc2-n2cnnn2)cc(C(=O)N(CC(C)C)CC(C)C)c1`, for which, in the assay with Plasma, the 2aPTT was 1.2 µM. For the same molecule, the Ki was 0.27 nM at Prothrombin and 29000 nM in assay [1].

For `Cc1cc(C(=O)NCc2ccccc2-n2cnnn2)cc(C(=O)N(CC(C)C)CC(C)C)c1`, the Ki at Prothrombin is 50 nM; in assay [1], greater than 100000 nM.

As for `Cc1cc(C(=O)NCc2cc(Cl)ccc2-n2cnnn2)cc(-c2cnccc2N(C)C)c1`, the Ki is 67 nM at Prothrombin and 302000 nM in assay [1].

For `CC(=O)c1ccncc1-c1cc(C)cc(C(=O)NCc2cc(Cl)ccc2-n2cnnn2)c1`, the Ki was 85 nM at Prothrombin and greater than 100000 nM in assay [1].

In the case of `Cc1cc(C(=O)NCc2cc(Cl)ccc2-n2cnnn2)cc(-c2cnccc2C(C)C)c1`, the 2aPTT with Plasma was determined as 1.5 µM. Besides, the values for the Ki (on Prothrombin; in assay [1]) were 0.27 nM and greater than 100000 nM, respectively.

On to `Cc1cc(C(=O)NCc2cc(Cl)ccc2-n2cnnn2)cc(-c2c[n+]([O-])ccc2C(C)C)c1`, for which, in the assay on Plasma, the 2aPTT came to 0.38 µM. In addition, the Ki turned out to be 0.77 nM at Prothrombin and 483000 nM in assay [1].

On to `Cc1cc(C(=O)NCc2cc(Cl)ccc2-n2cnnn2)cc(C2CNCCC2CC(C)C)c1` (stereo unspecified), for which, in the assay on Plasma, the 2aPTT was 1.42 µM. Moreover, the values for the Ki (on Prothrombin; in assay [1]) were 1.8 nM and 278000 nM, respectively.

For `Cc1cc(NC2CCCCC2)cc(C(=O)NCc2cc(Cl)ccc2-n2cnnn2)c1`, the 2aPTT in the assay on Plasma is greater than 8.2 µM. Besides, the Ki was 9.6 nM on Prothrombin and greater than 100000 nM in assay [1].

Consider `CC(=O)N(c1cc(C)cc(C(=O)NCc2cc(Cl)ccc2-n2cnnn2)c1)C1CCCCC1`, for which the 2aPTT in the assay with Plasma was 1.67 µM. Further, the Ki at Prothrombin was 4.1 nM; in assay [1], greater than 100000 nM.

Turning to `Cc1cc(C(=O)NCc2cc(Cl)ccc2-n2cnnn2)cc(N(C2CCCCC2)S(C)(=O)=O)c1`, the 2aPTT in the assay with Plasma was determined as 0.87 µM. Further, the Ki at Prothrombin was 0.93 nM; in assay [1] it was greater than 100000 nM.

As to `Cc1cc(C(=O)NCc2cc(Cl)ccc2-n2cnnn2)cc(N(CCN)C2CCCCC2)c1`, in the assay on Plasma, the 2aPTT turned out to be 1.48 µM. For the same molecule, the Ki at Prothrombin turned out to be 1.6 nM; in assay [1], 75000 nM.

As for `Cc1cc(C(=O)NCc2cc(Cl)ccc2-n2cnnn2)cc(N(C2CCCC2)S(C)(=O)=O)c1`, the 2aPTT in the assay on Plasma was determined as 0.75 µM. Also, the Ki at Prothrombin was 1.25 nM; in assay [1], greater than 100000 nM.
